Laboratory results from ChEMBL document CHEMBL4808171, “Structure-Activity Relationship Study and Biological Evaluation of 2-(Disubstituted phenyl)-indole-5-propanoic Acid Derivatives as GPR40 Full Agonists” (J Med Chem, 2021).
The source made the active and inactive calls. The rule behind the calls is not given here.

Assays:
[1] = molecular target: T1, Peroxisome proliferator-activated receptor gamma (Homo sapiens, UniProt P37231); assay: Agonist activity at human PPARgamma expressed in CHO cells assessed as increase in receptor transcriptional activity incubated for 24 hrs by dual luciferase reporter gene assay; format: cell-based
T1 sequence (P37231 whole entry): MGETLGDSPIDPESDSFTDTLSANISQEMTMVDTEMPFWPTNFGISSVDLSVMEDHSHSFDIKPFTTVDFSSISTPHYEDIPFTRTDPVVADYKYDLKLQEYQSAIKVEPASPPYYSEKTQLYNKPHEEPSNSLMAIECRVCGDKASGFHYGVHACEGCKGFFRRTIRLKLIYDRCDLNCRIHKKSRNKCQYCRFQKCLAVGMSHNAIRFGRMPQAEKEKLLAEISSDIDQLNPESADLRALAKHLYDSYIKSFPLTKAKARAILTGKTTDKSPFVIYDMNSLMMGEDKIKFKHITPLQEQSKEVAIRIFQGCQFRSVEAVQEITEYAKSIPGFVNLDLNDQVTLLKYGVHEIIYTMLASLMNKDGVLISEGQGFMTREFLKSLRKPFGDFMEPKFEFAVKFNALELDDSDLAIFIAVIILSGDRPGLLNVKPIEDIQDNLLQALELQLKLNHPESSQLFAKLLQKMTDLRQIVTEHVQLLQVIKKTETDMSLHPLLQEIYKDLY

[2] = Clast in CD-1 mouse at 30 mg/kg, po measured up to 8 hrs by LC-MS/MS analysis; format: ADME, organism-based; settings: in vivo, read-out: Clast
[3] = Clast in CD-1 mouse at 90 mg/kg, po measured up to 8 hrs by LC-MS/MS analysis; format: ADME, organism-based; settings: in vivo, read-out: Clast
[4] = Metabolic stability in human liver microsomes assessed as intrinsic clearance; format: ADME, Microsome; settings: read-out: CLH
[5] = Tmax in CD-1 mouse at 30 mg/kg, po measured up to 8 hrs by LC-MS/MS analysis; format: ADME, organism-based; settings: in vivo
[6] = molecular target: Free fatty acid receptor 1 (Mus musculus) (UniProt Q76JU9); assay: Agonist activity at GPR40 in mouse MIN6 cells assessed as fold increase in 17 mM glucose-mediated insulin secretion at 1 to 10 uM incubated for 2 hrs by ELISA relative to control; format: functional, cell-based; settings: filed as positive allosteric modulator, dose 1-10 µM
Chain of Free fatty acid receptor 1 (Mus musculus) (Q76JU9 whole entry): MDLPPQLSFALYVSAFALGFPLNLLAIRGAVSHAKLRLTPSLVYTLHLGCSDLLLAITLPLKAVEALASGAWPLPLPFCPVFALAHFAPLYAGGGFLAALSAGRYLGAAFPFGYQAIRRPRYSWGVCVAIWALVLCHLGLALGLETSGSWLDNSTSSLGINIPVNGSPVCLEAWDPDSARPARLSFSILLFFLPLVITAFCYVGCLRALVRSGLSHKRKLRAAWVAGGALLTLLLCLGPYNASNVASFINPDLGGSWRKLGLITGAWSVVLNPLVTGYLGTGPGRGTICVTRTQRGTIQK

[7] = molecular target: T2, Peroxisome proliferator-activated receptor gamma (Homo sapiens) (UniProt P37231); assay: Agonist activity at human PPARgamma expressed in CHO cells assessed as increase in receptor transcriptional activity at 1 uM incubated for 24 hrs by dual luciferase reporter gene assay relative to rosiglitazone; format: cell-based
T2 sequence (whole entry): T1 sequence (P37231 whole entry)

[8] = molecular target: T3, Free fatty acid receptor 4 (Homo sapiens, UniProt Q5NUL3); assay: Agonist activity at FFAR4 (unknown origin); format: functional
T3 sequence (Q5NUL3 whole entry): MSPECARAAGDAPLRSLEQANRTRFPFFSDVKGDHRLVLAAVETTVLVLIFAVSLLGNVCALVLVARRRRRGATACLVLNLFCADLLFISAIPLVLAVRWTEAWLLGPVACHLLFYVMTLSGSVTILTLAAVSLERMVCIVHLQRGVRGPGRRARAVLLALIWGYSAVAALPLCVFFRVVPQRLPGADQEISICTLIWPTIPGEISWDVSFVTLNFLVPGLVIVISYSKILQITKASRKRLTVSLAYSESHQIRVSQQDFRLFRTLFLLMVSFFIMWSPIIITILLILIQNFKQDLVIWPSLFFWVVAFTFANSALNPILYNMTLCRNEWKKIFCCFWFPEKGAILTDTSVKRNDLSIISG

[9] = molecular target: T4, Free fatty acid receptor 1 (Homo sapiens, UniProt O14842); assay: Agonist activity at GPR40 (unknown origin) expressed in CHO cells co-expressing luc2P/SRE assessed as induction of TAK875-induced firefly luciferase activity incubated for 24 hrs by Bright-Glo based serum response element (SRE) luciferase reporter assay; format: functional, cell-based; settings: filed as positive allosteric modulator
T4 sequence (O14842 whole entry): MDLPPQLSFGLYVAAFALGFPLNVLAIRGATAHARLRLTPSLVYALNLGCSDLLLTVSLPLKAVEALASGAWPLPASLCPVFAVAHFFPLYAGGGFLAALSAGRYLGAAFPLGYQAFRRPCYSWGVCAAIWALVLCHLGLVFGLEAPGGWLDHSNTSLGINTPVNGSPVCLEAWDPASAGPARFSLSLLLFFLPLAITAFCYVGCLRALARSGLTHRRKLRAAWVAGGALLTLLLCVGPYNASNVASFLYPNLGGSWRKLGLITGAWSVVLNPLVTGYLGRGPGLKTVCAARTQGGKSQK

[10] = molecular target: T4, Free fatty acid receptor 1; assay: Agonist activity at GPR40 (unknown origin) expressed in CHO cells co-expressing luc2P/SRE assessed as induction of DHA-induced firefly luciferase activity incubated for 24 hrs by Bright-Glo based serum response element (SRE) luciferase reporter assay; format: functional, cell-based; settings: filed as positive allosteric modulator
[11] = system: Mus musculus; assay: Antidiabetic activity in db/db mouse assessed as reduction in plasma glucose level at 30 mg/kg, po pretreated 1 hr before glucose challenge measured up to 120 mins by Oral glucose tolerance test; format: functional, organism-based
[12] = system: Mus musculus; assay: Antidiabetic activity in C57BL/6J mouse assessed as increase in plasma GLP1 level at 30 mg/kg, po measured after 30 mins by ELISA relative control; format: functional, organism-based
[13] = system: Mus musculus; assay: Antidiabetic activity in C57BL/6J mouse assessed as increase in plasma GLP1 level at 30 mg/kg, po measured after 30 mins in presence of KR-62436 by ELISA relative to KR-62436 treated control; format: functional; settings: 0.5 h

Question: Which results are given for Cc1cc(F)ccc1-c1cc2cc(CCC(=O)O)ccc2[nH]1?
Answer: EC50 ([1]; read-out: EC50): 56.9 µM; concentration at 8 h [2]: 189 ng/mL; concentration at 8 h [3]: 63 ng/mL; microsomal CLint [4]: ≤ 4 µL/min/mg; Tmax [5]: 26.4 min; fold change (FC) [6]: 1.16; Emax [7]: 32.5%; EC50 [8]: > 25 µM; Activity [9]: Active; Activity [10]: Active

Question: Which results are given for Cc1ccc(C)c(-c2cc3cc(CCC(=O)O)ccc3[nH]2)c1?
Answer: Activity [11]: Active; Activity [12]: Active; EC50 ([1]; cho): Not Active; concentration at 8 h [2]: 62 ng/mL; concentration at 8 h [3]: 2680 ng/mL; microsomal CLint [4]: ≤ 4 µL/min/mg; Activity [13]: 163%; Tmax [5]: 19.8 min; EC50 [8]: 14.8 µM; Activity [9]: Active; Activity [10]: Active
